Results on 23 compounds are retold here after patent publication US6972288B1, “4-amino-quinazoline and quinoline derivatives having an inhibitory effect on signal transduction mediated by tyrosine kinases” (Boehringer Ingelheim Pharma KG, priority 1999, dated 2005).

Structures are written as SMILES.

The target in one series is T1, human EGF-R (Homo sapiens, UniProt P00533).
T1 construct: expressed in transfected cells; host or cells: F/L-HERc cells, derived from the murine IL-3-dependent line FDC-P1 ('FDC-PI' [sic]); retroviral vector LXSN, packaging line GP+E86
T1 sequence (P00533 25-1210): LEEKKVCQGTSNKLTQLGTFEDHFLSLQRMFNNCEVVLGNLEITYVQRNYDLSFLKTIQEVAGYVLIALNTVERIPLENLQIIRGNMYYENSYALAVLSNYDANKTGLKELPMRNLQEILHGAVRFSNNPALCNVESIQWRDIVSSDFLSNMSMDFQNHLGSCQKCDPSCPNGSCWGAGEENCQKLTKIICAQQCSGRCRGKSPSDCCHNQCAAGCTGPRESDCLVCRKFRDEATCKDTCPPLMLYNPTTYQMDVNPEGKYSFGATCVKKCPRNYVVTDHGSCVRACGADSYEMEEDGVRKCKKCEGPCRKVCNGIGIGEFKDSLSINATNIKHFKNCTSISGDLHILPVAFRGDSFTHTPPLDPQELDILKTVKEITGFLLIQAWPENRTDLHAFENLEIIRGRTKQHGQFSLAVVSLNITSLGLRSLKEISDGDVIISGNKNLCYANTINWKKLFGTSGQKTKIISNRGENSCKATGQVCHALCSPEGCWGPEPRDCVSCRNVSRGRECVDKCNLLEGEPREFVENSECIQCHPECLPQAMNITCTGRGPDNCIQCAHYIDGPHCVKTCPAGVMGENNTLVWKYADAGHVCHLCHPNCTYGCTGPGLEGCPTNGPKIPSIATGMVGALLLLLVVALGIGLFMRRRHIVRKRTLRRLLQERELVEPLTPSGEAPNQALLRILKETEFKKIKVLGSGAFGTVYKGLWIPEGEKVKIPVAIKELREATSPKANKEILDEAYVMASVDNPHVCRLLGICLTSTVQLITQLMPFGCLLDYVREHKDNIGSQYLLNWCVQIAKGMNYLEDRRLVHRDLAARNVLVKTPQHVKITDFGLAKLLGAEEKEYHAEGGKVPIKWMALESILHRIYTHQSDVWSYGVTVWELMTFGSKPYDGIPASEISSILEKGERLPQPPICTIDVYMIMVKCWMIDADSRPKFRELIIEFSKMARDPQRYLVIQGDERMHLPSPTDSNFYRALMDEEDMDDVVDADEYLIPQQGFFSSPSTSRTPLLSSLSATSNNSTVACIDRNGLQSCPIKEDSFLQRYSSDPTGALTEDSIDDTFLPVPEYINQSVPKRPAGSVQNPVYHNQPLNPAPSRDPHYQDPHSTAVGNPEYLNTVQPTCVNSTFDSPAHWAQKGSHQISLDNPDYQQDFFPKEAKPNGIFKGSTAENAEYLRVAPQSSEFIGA
Nature of the series: Inhibition of EGF-dependent proliferation of F/L-HERc cells (Cell Titer 96 AQueous assay). The series is classed as cell-based. As to conditions: F/L-HERc cells (murine IL-3-dependent line expressing human EGF-R), stimulated with EGF 20 ng/ml, 48 hours at 37° C. An excerpt:
A cell line of murine origin dependent on interleukin-3 (IL-3) which was genetically modified to express functional human EGF-R was used here. The proliferation of these cells known as F/L-HERc can therefore be stimulated either by murine IL-3 or by EGF (cf. von Rüden, T. et al. in EMBO J. 7, 2749-2756 (1988) and Pierce, J. H. et al. in Science 239. 628-631 (1988)).
The starting material used for the F/L-HERc cells was the cell line FDC-PI, the production of which has been described by Dexter, T. M. et al, in J. Exp. Med. 152, 1036-1047 (1980). alternatively, however, other growth-factor-dependent cells may also be used (cf. for example Pierce, J. H. et al. in Science 239, 628-631 (1988), Shibuya, H. et al. in Cell 70, 57-67 (1992) and alexander, W. S. et al. in EMBO J. 10, 3683-3691 (1991)). For expressing the human EGF-R cDNA (cf. Ullrich, A. et al. in Nature 309, 418-425 (1984)) recombinant retroviruses were used as described by von Rüden, T. et al., EMBO J. 7, 2749-2756 (1988), except that the retroviral vector LXSN (cf. Miller, A. D. et al. in BioTechniques 1, 980-990 (1989)) was used for the expression of the EGF-R cDNA and the line GP+E86 (cf, Markowitz, D, et al. in J. Virol. 62, 1120-1124 (1988)) was used as the packaging cell.
The test was performed as follows: • F/L-HERC cells were cultivated in RPMI/1640 medium (BioWhittaker), supplemented with 10% foetal calf serum (FCS, Boehringer Mannheim). 2 mM glutamine (BioWhittaker), standard antibiotics and 20 ng/ml of human EGF (Promega), at 37° C. and 5% CO2. In order to investigate the inhibitory activity of the compounds according to the invention, 1.5×10^4 cells per well were cultivated in triplicate in 96-well plates in the above medium ([…]), the cell proliferation being stimulated with either EGF (20 ng/ml) or murine IL-3. The IL-3 used was obtained from culture supernatants of the cell line X63/0 mIL-3 (cf. Karasuyama, 4. et al. in Eur. J. Immunol. 18, 97-104 (19881). The compounds according to the invention were dissolved in 100% dimethylsulphoxide (DMSO) and added to the cultures in various dilutions, the maximum DMSO concentration being 1%. The cultures were incubated for 48 hours at 37° C.
In order to determine the inhibitory activity of the compounds according to the invention the relative cell number was measured in O.D. units using the Cell Titer 96™ AQueous Non-Radioactive Cell Proliferation Assay (Promega). The relative cell number was calculated as a percentage of the control (F/LHERc cells without inhibitor) and the concentration of active substance which inhibits the proliferation of the cells by 50% (IC50) was derived therefrom.
Take `C=CC(=O)Nc1cc2c(Nc3cccc(Br)c3)ncnc2cc1OCCCN1CCN(CCCC(=O)OCC)CC1` [1(4), 4-[(3-bromophenyl)amino]-7-(3-{4-[3-(ethoxycarbonyl)propyl]-piperazin-1-yl}propyloxy)-6-[(vinylcarbonyl)amino]-quinazoline]: 15 nM corresponded to half-maximal inhibition (IC50). Regarding `C=CC(=O)Nc1cc2c(Nc3cccc(Br)c3)ncnc2cc1OC1CCN(CC(=O)OCC)CC1` [1(6), 4-[(3-bromophenyl)amino]-7-((1-[(ethoxycarbonyl)methyl]-piperidin-4-yl)oxy)-6-[(vinylcarbonyl)amino]-quinazoline], the IC50 (in general, the concentration that gives 50% inhibition) stood at 15 nM. Consider `C=CC(=O)Nc1cc2c(Nc3cccc(Br)c3)ncnc2cc1OCCCN1CCN(CP(=O)(OCC)OCC)CC1` [1(10), 4-[(3-bromophenyl)amino]-7-(3-{4-[(diethoxyphosphoryl)-methyl]-piperazin-1-yl}propyloxy)-6-[(vinylcarbonyl)amino]-quinazoline], for which the IC50 came to 21 nM.

The compound `C=CC(=O)Nc1cc2c(Nc3cccc(Br)c3)ncnc2cc1OCCCN(C)CC(=O)OCC` [1(13), 4-[(3-bromophenyl)amino]-7-(3-{N-[(ethoxycarbonyl)methyl]-N-methylamino)propyloxy)-6-[(vinylcarbonyl)amino]-quinazoline] displayed an IC50 of 8.7 nM.

`CCOP(=O)(CN(C)CC=CC(=O)Nc1cc2c(Nc3cccc(Br)c3)ncnc2cc1OC)OCC` [2(4), 4-[(3-bromophenyl)amino]-6-[(4-{N-[(diethoxyphosphoryl)methyl]-N-methylamino}-1-oxo-2-buten-1-yl)amino]-7-methoxy-quinazoline]: the IC50 was 6.7 nM. The same measure, in the same setting: in the case of `CCOC(=O)CN(C)CC=CC(=O)Nc1cc2c(N[C@H](C)c3ccccc3)ncnc2cc1OC` [5(2), (R)-4-[(1-phenylethyl)amino]-6-[(4-(N-[(ethoxycarbonyl)methyl]-N-methylamino}-1-oxo-2-buten-1-yl)amino]-7-methoxy-quinazoline] it was 9 nM; in that of `COc1cc2ncnc(Nc3cccc(Br)c3)c2cc1NC(=O)C=CCN(C)CC(OC)OC` [5(8), 4-[(3-bromophenyl)amino]-6-({4-[N-(2,2-dimethoxyethyl)-N-methylamino]-1-oxo-2-buten-1-yl}amino)-7-methoxy-quinazoline], 1.8 nM.

`CCOC1CN(CC=CC(=O)Nc2cc3c(Nc4cccc(Br)c4)ncnc3cc2OC)CCO1` (centres unmarked) [5(10), 4-[(3-bromophenyl)amino]-6-([4-(2-ethoxy-morpholin-4-yl)-1-oxo-2-buten-1-yl]amino)-7-methoxy-quinazoline] showed an IC50 of 1.8 nM. On the same count and under the same terms, under `CCOC(=O)CN(C)CC=CC(=O)Nc1ccc2ncc(C#N)c(Nc3cccc(Br)c3)c2c1` [5(12), 4-[(3-bromophenyl)amino]-3-cyano-6-[(4-{N-[(ethoxycarbonyl)methyl]-N-methylamino}-1-oxo-2-buten-1-yl)amino]-quinoline] stands 18 nM; under `CCOC(=O)CN1CCN(CC=CC(=O)Nc2cc3c(Nc4ccc(F)c(Cl)c4)ncnc3cc2OCC2CC2)CC1` [5(18)], 7.4 nM; under `CCOC(=O)CCN(CC=CC(=O)Nc1cc2c(Nc3ccc(F)c(Cl)c3)ncnc2cc1OCC1CC1)CC(=O)OCC` [5(22)], 58 nM. On the same count and under the same terms, under `O=C(C=CCN1CCOC(=O)C1)Nc1cc2c(Nc3ccc(F)c(Cl)c3)ncnc2cc1OCC1CC1` [5(25), 4-[(3-chloro-4-fluorophenyl)amino]-6-{[4-(2-oxo-morpholin-4-yl)-1-oxo-2-buten-1-yl]amino}-7-cyclopropylmethoxy-quinazoline] stands 74 nM.

Compound `CCOC(=O)CN1CCN(CC=CC(=O)Nc2cc3c(Nc4ccc(F)c(Cl)c4)ncnc3cc2OC2CCC2)CC1` [5(29), 4-[(3-chloro-4-fluorophenyl)amino]-6-[(4-{4-[(ethoxycarbonyl)methyl]-piperazin-1-yl)-1-oxo-2-buten-1-yl}amino]-7-cyclobutyloxy-quinazoline] had an IC50 of 1.9 nM.

`COC(=O)[C@@H]1CCCN1CC=CC(=O)Nc1cc2c(Nc3ccc(F)c(Cl)c3)ncnc2cc1OCC1CC1` [5(36)] showed an IC50 of 3 nM. The compound `CCOC(=O)CN(CC=CC(=O)Nc1cc2c(Nc3ccc(F)c(Cl)c3)ncnc2cc1OCC1CC1)CCSC(C)=O` [8(1), 4-[(3-chloro-4-fluorophenyl)amino]-6-[(4-(N-[(ethoxycarbonyl)methyl]-N-[2-(acetylsulphanyl)ethyl]amino)-1-oxo-2-buten-1-yl)amino]-7-cyclopropylmethoxy-quinazoline] came in with a half-maximal inhibitory concentration (IC50) of 109 nM.

Test system in the next series: not given
Test: not given
Conditions: not given
As to `CCOC(=O)CN(C)CCCNC(=O)C=CC(=O)Nc1ccc2ncnc(Nc3cccc(Br)c3)c2c1` [Example 3, 4-[(3-Bromophenyl)amino]-6-{[4-(3-{N-[(ethoxycarbonyl)methyl]-N-methylamino)propylamino)-1,4-dioxo-2-buten-1-yl]amino}-quinazoline], the melting point (in general, the temperature of the solid-liquid transition) turned out to be 199 °C. As to `CCOC(=O)CN(C)CC=CC(=O)Nc1cc2c(Nc3cccc(C)c3)ncnc2cc1OC` [Example 5, 4-[(3-methylphenyl)amino]-6-[(4-{N-[(ethoxycarbonyl)methyl]-N-methylamino}-1-oxo-2-buten-1-yl)amino]-7-methoxy-quinazoline], the melting point is 110 to 114 °C. With `C=CC(=O)Nc1cc2c(Nc3cccc(Br)c3)ncnc2cc1OCCCN1CCN(CC(=O)O)CC1` [Example 6, 4-[(3-Bromophenyl)amino]-7-{3-[4-(carboxymethyl)-piperazin-1-yl]propyloxy}-6-[(vinylcarbonyl)amino]-quinazoline], the melting point is 140 °C (dec.). On to `CCOC1CN(CC=CC(=O)Nc2cc3c(Nc4cccc(Br)c4)ncnc3cc2OC)CC(OCC)O1` (centres unmarked) [Example 7, 4-[(3-bromophenyl)amino]-6-{[4-(2,6-diethoxy-morpholin-4-yl)-1-oxo-2-buten-1-yl]amino}-7-methoxy-quinazoline], for which the melting point lay within 133 to 138 °C. Still for that read-out and setting: under `CC1(C)CN(CC=CC(=O)Nc2cc3c(Nc4ccc(F)c(Cl)c4)ncnc3cc2OCC2CC2)CC(=O)O1` [Example 10, 4-[(3-chloro-4-fluorophenyl)amino]-6-{[4-(2,2-dimethyl-6-oxo-morpholin-4-yl)-1-oxo-2-buten-1-yl]amino}-7-cyclopropylmethoxy-quinazoline] stands 140 to 142 °C. On to `O=C(C=CCN1CCN(CC(=O)OCc2ccccc2)CC1)Nc1cc2c(Nc3ccc(F)c(Cl)c3)ncnc2cc1OCC1CC1` [Example 12, 4-[(3-Chloro-4-fluoro-phenyl)amino]-6-[(4-{4-[(benzyloxycarbonyl)methyl]-piperazin-1-yl)-1-oxo-2-buten-1-yl}amino]-7-cyclopropylmethoxy-quinazoline], for which the melting point worked out at 174 °C.

Take `CCOC(=O)C1CN(S(C)(=O)=O)CCN1CC=CC(=O)Nc1cc2c(Nc3ccc(F)c(Cl)c3)ncnc2cc1OCC1CC1` (centres unmarked) [Example 15, 4-[(3-Chloro-4-fluoro-phenyl)amino]-6-({4-[2-(ethoxycarbonyl)-4-(methylsulfonyl)-piperazin-1-yl]-1-oxo-2-buten-1-yl)amino)-7-cyclopropylmethoxy-quinazoline]: the melting point was 170 to 173 °C. In turn, `CCOC(=O)CCN1CCN(CC=CC(=O)Nc2cc3c(Nc4ccc(F)c(Cl)c4)ncnc3cc2OCC2CC2)CC1` [Example 16, 4-[(3-Chloro-4-fluoro-phenyl)amino]-6-[(4-{4-[2-(ethoxycarbonyl)-ethyl]-piperazin-1-yl}-1-oxo-2-buten-1-yl)amino]-7-cyclopropylmethoxy-quinazoline] came in with a melting point of 183 to 185 °C.
